Assay results from PubChem BioAssay AID1418 (Emory University Molecular Libraries Screening Center, 2008).
The source made the active and inactive calls. No rule for the calls is given here.

Target: Induced myeloid leukemia cell differentiation protein Mcl-1 (Homo sapiens) (UniProt Q07820)
Experiment: blockers of Bid binding to Mcl-1 – biochemical, TR-FRET, dose response (AID 1418)
Conditions: Mcl-1/Bid peptide binding, TR-FRET (europium/Dy647), 2 hr

Sequence of Induced myeloid leukemia cell differentiation protein Mcl-1 (Homo sapiens) (Q07820 whole entry, looked up): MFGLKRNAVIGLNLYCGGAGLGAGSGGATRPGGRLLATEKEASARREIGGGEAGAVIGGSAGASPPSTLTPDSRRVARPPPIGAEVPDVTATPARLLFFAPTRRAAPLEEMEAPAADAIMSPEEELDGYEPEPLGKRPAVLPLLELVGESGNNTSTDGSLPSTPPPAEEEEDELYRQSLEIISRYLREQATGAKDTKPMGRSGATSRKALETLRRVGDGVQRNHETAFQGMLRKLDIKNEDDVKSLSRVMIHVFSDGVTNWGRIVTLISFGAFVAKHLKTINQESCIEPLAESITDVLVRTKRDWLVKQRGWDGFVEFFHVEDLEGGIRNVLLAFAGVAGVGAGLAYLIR

Structure (SMILES) | IC50
CCOC(=O)c1c(NC(=O)N/N=C/c2ccc(O)c(OC)c2)sc(C(C)=O)c1C | 0.53 µM
Fc1ccccc1NC(=S)N1CCN(Cc2ccc3c(c2)OCO3)CC1 | > 54 µM (inactive)
O=C(Nc1ccc2oc(=O)ccc2c1)c1ccc(-c2cccc([N+](=O)[O-])c2)o1 | 0.65 µM
CSc1nc(N(C)CCO)c2sc3nc(-c4ccco4)c4c(c3c2n1)CCC4 | > 54 µM (inactive)
O=C(/C=C/Nc1cccc(F)c1)c1ccco1 | > 54 µM (inactive)
Cc1sc(NC(=O)c2ccccc2)c(C(=O)N2CCN(C)CC2)c1C | > 54 µM (inactive)
CC(=O)Cc1nsc(NC(=O)c2ccc(-c3cc(C(F)(F)F)ccc3Cl)o2)n1 | > 54 µM (inactive)
Cc1occc1C(=O)N/N=C/c1ccc(N(C)C)cc1 | > 54 µM (inactive)
COc1ccc(-c2nnn(CC(=O)N(CCCO)C(C(=O)NC3CCCC3)c3ccncc3)n2)cc1 (stereo unspecified) | > 54 µM (inactive)
Cc1ccc2nc(NC(=O)c3cccc(-c4cc5ccccc5oc4=O)c3)sc2c1 | 0.99 µM
COc1cc2[nH]c(=S)n(N(C(C)=O)C(C)=O)c(=O)c2cc1OC | > 54 µM (inactive)
CCN1/C(=C/C=C/c2oc3ccc4ccccc4c3[n+]2CC)Oc2ccc3ccccc3c21 | 0.58 µM
COc1ccc2[nH]c3c(=O)n(Cc4ccco4)cnc3c2c1 | > 54 µM (inactive)
CCC1Oc2ccc(C)cc2N(CC(=O)N(Cc2cccnc2)Cc2ccc(C)o2)C1=O (stereo unspecified) | > 54 µM (inactive)
N#Cc1nc(COc2ccc(F)cc2)oc1N1CCN(Cc2ccccc2)CC1 | > 54 µM (inactive)
O=C(CSc1nc2ccccc2c2nc3ccccc3n12)NCc1ccco1 | 2.5 µM
O=C1CSC(=S)N1/N=C/c1ccc(O)c(O)c1O | 1.17 µM
CN(CCN(C)C(C)(C)C)C(=O)C(c1ccccc1)c1ccccc1 | > 54 µM (inactive)
CC1=C(C#N)C(=O)NC(=O)/C1=C\c1ccc(-c2cc(C)c(C)cc2[N+](=O)[O-])o1 | 1.16 µM
O=C(c1ccccc1)N1CCN(Cc2ccccc2Br)CC1 | > 54 µM (inactive)
CCOc1cc(N2CCOCC2)c(OCC)cc1NC(=O)CN1CCc2ccccc2C1 | > 54 µM (inactive)
CN1C(=O)/C(=C2\SC(=S)N(CCCCCC(=O)O)C2=O)c2ccccc21 | 29.4 µM
O=C(NCc1nc2ncc(Br)cc2[nH]1)c1ccccc1 | > 54 µM (inactive)
C=CCC1(/C=N/O)CCOC(C)(C)C1 (stereo unspecified) | > 54 µM (inactive)
COc1ccc2[nH]c(=O)c(CN(C(=O)C3CCCO3)c3ccc(C)c(C)c3)cc2c1 (stereo unspecified) | > 54 µM (inactive)
O=C1N=c2ccccc2=C1c1c(O)n(-c2cccc(F)c2)[nH]c1=O | 1.56 µM

Structure (SMILES) | IC50
Cc1cc(=O)oc2cc(OCc3ccc(C(=O)OCC(=O)Nc4ccc(N(C)C)cc4)cc3)ccc12 | 0.7 µM
CCOc1ccccc1Nc1nc(-c2sc(NC(=O)c3ccc([N+](=O)[O-])cc3)nc2C)cs1 | 1.37 µM
CC1CCc2c(sc3ncn(CC(=O)N=Nc4c(O)[nH]c5ccccc45)c(=O)c23)C1 (stereo unspecified) | 1.47 µM
CCOC(=O)c1c(C)oc2c1c(C(c1ccncc1)N1CCOCC1)c(O)c1ccccc12 (stereo unspecified) | 0.87 µM
CSc1nc(C)cc(OCC(=O)n2nc(C)cc2C)n1 | > 54 µM (inactive)
O=C(Oc1ccc(Nc2ncnc3ccccc23)cc1)c1cccnc1 | > 54 µM (inactive)
C=CS(=O)(=O)c1sc(Cl)c(N2CCOCC2)c1[N+](=O)[O-] | 1.77 µM
O=C(CSc1nnc(COc2cccc3cccnc23)o1)N1CCc2ccccc21 | inactive
O=C(Cn1nc(C(F)(F)F)c2c1CCCC2)NCc1ccco1 | > 54 µM (inactive)
COc1ccc(-c2csc(/C(C#N)=C\c3ccc(O)c([N+](=O)[O-])c3)n2)cc1OC | > 54 µM (inactive)
CC(NC(=O)NC1CCCCC1)C(c1cccs1)N1CCN(c2ccccc2)CC1 (stereo unspecified) | > 54 µM (inactive)
Cc1ccc(NC(=O)c2ccc3ncsc3c2)cc1S(=O)(=O)N(C)C | inactive
Cc1n[nH]c(C)c1S(=O)(=O)N1CCN(c2ccccn2)CC1 | > 54 µM (inactive)
COc1cc(OC)cc(C(=O)N2CCN(Cc3ccccc3C(F)(F)F)CC2)c1 | inactive
COC(=O)c1ccccc1S(=O)(=O)N1CCn2cccc2C1C (stereo unspecified) | > 54 µM (inactive)
Cc1n[nH]c(=S)c2nn(-c3ccccc3)c(C)c12 | > 54 µM (inactive)
Cc1ccc2nc(-c3ccc(SCC(=O)Nc4nnc(C)s4)nc3)[nH]c2c1 | 8.48 µM
O=C(Cn1nnc(-c2ccccc2NC(=O)c2cccs2)n1)Nc1ccccc1 | > 54 µM (inactive)
COC(=O)c1c(NC(=O)c2cnccn2)sc2c1CCC2 | > 54 µM (inactive)
CCN(CC)c1ccc(CNc2nc3ccccc3n2C)cc1 | > 54 µM (inactive)
O=C(CCC(=O)c1ccc(Oc2ccccc2)cc1)Nc1cccc(Cl)c1 | > 54 µM (inactive)
CN1C(=O)CN=C(c2ccc(Cl)cc2)c2cc(Cl)ccc21 | > 54 µM (inactive)
COc1ccc(CN2C(=O)c3cccnc3C2Nc2ccc(OC)c(Cl)c2)cc1 (stereo unspecified) | 0.74 µM
COc1ccc2[nH]c3c4c(ccc3c2c1)C(=O)C=CC4=O | 2.51 µM
CCC(C)[C@H](NC(=O)Nc1ccccc1F)C(=O)O (stereo partly specified) | > 54 µM (inactive)
CCC(=NC(C)c1ccccc1)c1c(O)[nH]c(=O)[nH]c1=O (stereo unspecified) | 0.45 µM

Structure (SMILES) | IC50
CN(C)c1ccnc2sc(C(N)=O)c(N)c12 | > 54 µM (inactive)
N#Cc1ccccc1Cn1c(-c2cscn2)nc2ccccc21 | > 54 µM (inactive)
O=C(Cc1c(F)cccc1Cl)Nc1ccon1 | > 54 µM (inactive)
CC(C)(C)NC(=O)c1sccc1C(=O)O | > 54 µM (inactive)
COc1cc2cc3c(N)c(C(=O)Nc4sc(C)c(C)c4C#N)sc3nc2cc1OC | 0.97 µM
N#C/C(=C\c1ccc(N2CCCC2)c([N+](=O)[O-])c1)c1nc2ccccc2[nH]1 | 21.6 µM
COC(=O)c1cccc(OCC(O)Cn2ccnc2)c1 (stereo unspecified) | > 54 µM (inactive)
Cc1c(C(=O)OCc2ccccc2)[nH]c2c1C(=O)CC(c1ccco1)C2 (stereo unspecified) | > 54 µM (inactive)
O=C(Cc1cccs1)N1CCN(S(=O)(=O)c2ccccc2)CC1 | > 54 µM (inactive)
Cc1cc(N/N=C/c2ccc(O)c(C)c2O)nc(-c2ccccc2O)n1 | 9.06 µM
O=C(c1cccc(Cl)c1)N1CCN(Cc2ccccc2F)CC1 | > 54 µM (inactive)
NC(=S)Nc1ccc(F)cc1F | > 54 µM (inactive)
COc1cc(/C=C2\SC(=O)N(c3cccc(Cl)c3)C2=O)cc([N+](=O)[O-])c1O | 6.38 µM
O=c1c2ccccc2sc2nc(C3CCCCC3)n(Cc3ccco3)c(=O)c12 | 19.3 µM
N=C1/C(=C\c2ccc(-c3ccc(C(=O)O)cc3)o2)C(=O)N=C2SC=C(c3ccccc3)N12 | 2.76 µM
COC(=O)c1cc(NC(=S)NCc2ccc(Cl)cc2)cc(C(=O)OC)c1 | > 54 µM (inactive)
COc1ccc(C(=O)N2CCN(Cc3ccccc3C)CC2)cc1OC | > 54 µM (inactive)
CC1CCCN(C(=S)Nc2ccc3nc4n(c(=O)c3c2)CCCCC4)C1 (stereo unspecified) | > 54 µM (inactive)
CC(C)[n+]1ccn(C2=C([O-])c3ccccc3C(=O)/C2=N\S(=O)(=O)c2ccccc2)c1 | > 54 µM (inactive)
Cc1nc(SCC(=O)Nc2cc(Cl)ccc2[N+](=O)[O-])nc(C)c1C | > 54 µM (inactive)
O=C(N/N=C/c1cccc([N+](=O)[O-])c1)c1cc2c(ccc3ccccc32)o1 | 1.64 µM
O=C(N=Nc1c(O)[nH]c2ccc([N+](=O)[O-])cc12)c1cc(-c2ccccc2Cl)nc2ccccc12 | 0.81 µM
O=C(Nc1ccc(-c2nc3ccc(NC(=O)c4cccs4)cc3[nH]2)cc1)c1cccs1 | 0.79 µM
COCCn1c(SCC(=O)NC(=O)NCc2ccccc2)nc2ccccc21 | > 54 µM (inactive)
COc1ccc(Nc2nc(C)c3ccccc3n2)cc1 | > 54 µM (inactive)
O=C(O)COc1ccc(/C=N/NC(=O)c2ccc(-c3csc(Nc4ccc(Cl)cc4)n3)cc2)cc1 | 1.43 µM

Structure (SMILES) | IC50
CCN(CC)c1ccc(NC(=O)Cn2ncc3c(C)n(Cc4ccccc4F)c(C)c3c2=O)c(C)c1 | 0.53 µM
CCSc1nnc(NC(=O)C(Cc2ccccc2)n2cccc2)s1 (stereo unspecified) | > 54 µM (inactive)
COc1ccc(C(=O)Nc2cccc(-c3cc4ccccc4oc3=O)c2)cc1[N+](=O)[O-] | 1.24 µM
Cc1ccc(NC(=O)CN2C(=O)/C(=C3\SC(=S)N(C4CCS(=O)(=O)C4)C3=O)c3ccccc32)cc1 (stereo unspecified) | 0.54 µM
O=C(N/N=C/c1ccc(F)cc1)c1cc(-c2ccco2)nc2ccccc12 | 3.3 µM
COc1ccccc1NS(=O)(=O)c1cccc(NC(=O)C2CC(=O)N(Cc3ccccc3)C2)c1 (stereo unspecified) | > 54 µM (inactive)
CCOc1ccc(N2C(=O)c3cccnc3C2Nc2ccc(F)cc2)cc1 (stereo unspecified) | > 54 µM (inactive)
Cc1ccc(-c2ccc(/C=C3/NC(=O)NC3=O)o2)cc1[N+](=O)[O-] | inactive
O=[N+]([O-])c1cc(Cl)cc(/C=N\Nc2ccccn2)c1O | 9.24 µM
CCCCCSc1nnc2c(n1)OC(c1cccn1C)N(C(C)=O)c1ccccc1-2 (stereo unspecified) | > 54 µM (inactive)
CC1CCN(S(=O)(=O)c2cccc(C(=O)Nc3ccccn3)c2)CC1 | > 54 µM (inactive)
Cc1ccc2oc(C(F)(F)C(F)F)cc(=O)c2c1 | inactive
COc1ccc(Cl)cc1C(Nc1cccnc1)c1ccc2cccnc2c1O (stereo unspecified) | 0.62 µM
Cc1ccc(C2C3=C(Nc4[nH]n(-c5ccccc5)c(=O)c42)c2ccccc2C3=O)cc1 (stereo unspecified) | 0.74 µM
CCOC(=O)c1cc(-c2ccccc2)n(CC(=O)N2CCCC2)c1C | > 54 µM (inactive)
O=C(CCS(=O)(=O)c1ccccc1)Nc1ccccc1-c1nc2ccccc2s1 | > 54 µM (inactive)
Cc1c(N=Nc2c(-c3ccc([N+](=O)[O-])cc3)[nH]n(C(N)=S)c2=O)cccc1[N+](=O)[O-] | 2.92 µM
O=C(NCC1CCCO1)c1cc([N+](=O)[O-])ccc1Cl (stereo unspecified) | > 54 µM (inactive)
COc1cc(/C=C2\SC(=O)N(c3ccc(Cl)cc3)C2=O)cc([N+](=O)[O-])c1O | 1.58 µM
CCCOc1cccc(CN2CCCCC2c2cccnc2)c1 (stereo unspecified) | > 54 µM (inactive)
CCS(=O)(=O)c1ccc(S(=O)(=O)CC)s1 | > 54 µM (inactive)
CN1C(=S)N(c2cccnc2)C(=O)/C1=C\c1ccc(N(C)C)cc1 | 9 µM
COc1ccc(-c2cc(C(F)(F)F)nc(N3CCOCC3)n2)cc1OC | > 54 µM (inactive)
